Reference: patent publication US8796253B2, “Heteroaryl substituted pyrazole derivatives useful for treating hyper-proliferative disorders and diseases associated with angiogenesis” (Bayer Intellectual Property GmbH, priority 2007, dated 2014)

Tested on: HCT-116 cells stably transfected with a Luciferase reporter gene under the control of HIF-responsive element
Experiment: HIF-Luciferase Assay
Type: cell-based
Details: Homo sapiens, HCT-116, HIF-Luciferase Assay, HCT-116 reporter cells, overnight at 1% oxygen; potency groups
Method: HCT-116 cells stably transfected with a Luciferase reporter gene under the control of HIF-responsive element were plated in white 96- or 384-well plates at 30,000 or 5,000 cells/well, respectively, in 50 μL/well media (RPMI with 10% fetal bovine serum and 100 μg/mL Hygromycin). Cells were incubated overnight at 37° C. in a humidified incubator containing 5% CO2 under normal oxygen. The next day test compounds were added to the wells at various concentrations (0-10 μM, 0.1% final DMSO concentration) and placed in a hypoxic chamber overnight at 1% oxygen. Following the exposure to hypoxic conditions, 50 μL/well of Bright Glo reagent (Promega, Wisconsin, USA) was added to the wells and luminescence was measured after 5 min. Cells incubated under normal oxygen levels were used as background control. […] Compounds that have IC50 values between 1 μM and 10 μM include those of Examples 8, 16, 38, 39, 40, 41, 42, 43, 47, 48, 53, 54, 56, 57, 66, 69, and 72.

IC50 [nM]	SMILES
≤ 1000	Cc1ccc(Cn2nc(-c3nc(-c4ccc(C(F)(F)F)cc4)no3)cc2C)cc1 [Example 7, 5-[5-methyl-1-(4-methylbenzyl)-1H-pyrazol-3-yl]-3-[4-(trifluoromethyl)phenyl]-1,2,4-oxadiazole]
≤ 1000	Cc1ccc(Cn2nc(-c3nc4ccc(N5CCCCC5)cc4[nH]3)cc2C)cc1 [Example 49, 2-[5-methyl-1-(4-methylbenzyl)-1H-pyrazol-3-yl]-6-piperidin-1-yl-1H-benzimidazole]
1000 to 10000	Cc1ccc(Cn2nc(-c3nc4c(C)cccc4[nH]3)cc2C)cc1 [Example 40, 4-methyl-2-[5-methyl-1-(4-methylbenzyl)-1H-pyrazol-3-yl]-1H-benzimidazole]
